Among the data in the METLIN SMRT retention time set (Domingo-Almenara et al. 2019) are RP-LC retention time values, retold here.

Structures are written as SMILES.

This series is described as follows: gradient 5% acetonitrile 3 min, to 50% in 2 min, to 85% in 15 min, held 3 min, 100 µL/min. As to conditions: column: Zorbax Extend-C18 2.1 x 50 mm; eluents: water / acetonitrile, 0.1% formic acid. The method in brief: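 Mixtures of ~100 pure standards were chromatographed on a Zorbax Extend-C18 column (2.1 × 50 mm, 1.8 μm) at 100 μL/min using water and acetonitrile, each with 0.1% formic acid. Detection used a quadrupole time-of-flight mass spectrometer in positive and negative ionization mode, and data collection spanned 3 months. Retention time was obtained from adduct peaks picked computationally and each checked manually.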
`CN[C@H]1CN(c2ccc3c(=O)c(C(=O)O)cn(-c4nccs4)c3n2)C[C@@H]1OC` came in with an RP-LC retention time of 599 s.

With `Fc1cccc(CNc2nnc(-c3nnc(C4CC4)o3)c3ccccc23)c1`, the RP-LC retention time is 933 s.

In turn, `O=C(Cn1nc2n(c1=O)CCCCC2)NCc1ccccc1Cl` showed an RP-LC retention time of 719 s.

As to `O=C(NC1CC1)c1ccc2ccnc(N3CCN(c4ccc(F)cc4)CC3)c2c1`, the RP-LC retention time came to 688 s.

The compound `O=C(Nc1ccc2c(c1)OCCO2)c1nn(CC2CC2)c2c1CNCC2` registered an RP-LC retention time of 568 s.

As for `CN(C)c1ccc(CNC(=O)c2nnc(-c3ccc(S(=O)(=O)N4CCOCC4)cc3)o2)cc1`, the RP-LC retention time is 648 s.

The compound `Cn1cc(C(=O)Nc2ccc3c(c2)OCCO3)c2cccnc21` registered an RP-LC retention time of 727 s.

In turn, `COCCOC(=O)c1cn(-c2cccc(OC)c2)c(=O)c2ccccc12` showed an RP-LC retention time of 902 s.

Compound `O=C([C@@H]1C[C@H](F)CN1C(=O)Nc1cccc(F)c1)N1CCOCC1` displayed an RP-LC retention time of 628 s.

Compound `O=C(c1cccnc1)N1CCN(c2cc(-c3cccs3)[nH]n2)CC1` displayed an RP-LC retention time of 616 s.

As to `Cc1ccc(CC(=O)NC2CCN(c3cc(-c4ccc(Cl)cc4)[nH]n3)C2)cc1` (stereo not given), the RP-LC retention time was found to be 807 s.

As for `Clc1cccc(CNc2cc(-n3ccnc3)ncn2)c1`, the RP-LC retention time turned out to be 589 s.

`Cc1cc(Nc2ccc(C(=O)NC3CC3)cc2)n2nc(-c3cccnc3)nc2n1` came in with an RP-LC retention time of 612 s.

In turn, `O=C1CC(c2nc(-c3ccc4c(c3)OCO4)no2)CN1c1ccc(Cl)cc1` (stereo not given) yielded an RP-LC retention time of 1030 s.

In turn, `CCN(CC)CCNc1ccc(-c2nc(-c3ccc(F)cc3)no2)nn1` returned an RP-LC retention time of 667 s.

With `Cc1cc(NC(=O)CN(C)c2nc3c(Cl)cccc3s2)no1`, the RP-LC retention time stood at 809 s.

Turning to `Cc1cc(C)c(S(=O)(=O)N2CCc3c(c(CN4CCCC4)nn3C)C2)c(C)c1`, the RP-LC retention time worked out at 686 s.

Compound `COc1ccc(-c2nc3ccccn3c2NCc2ccccc2)cc1` registered an RP-LC retention time of 724 s.

`Cc1ccc(C(=O)N2C[C@@H]3C[C@H](NS(C)(=O)=O)[C@H]2C3)cc1F`: the RP-LC retention time came out at 671 s.

`CSc1ccc(-c2nc3c(C)cccn3c2Nc2ccc3c(c2)OCCO3)cc1` returned an RP-LC retention time of 749 s.

In the case of `COc1ccc(C(=O)CSc2nnc3sc4ccccc4n23)cc1OC`, the RP-LC retention time was found to be 768 s.

Consider `CSc1ccc(CNC(=O)c2cccc(-c3nc4cccnc4n3C)c2)cc1`, for which the RP-LC retention time amounted to 759 s.

`CSc1cccc(NC(=O)c2[nH]c3cc(C)sc3c2CN2CCOCC2)c1` yielded an RP-LC retention time of 733 s.

As for `Cc1cccc(NC(=O)N2CCCC2c2nc(-c3cccc(F)c3)no2)c1` (stereo not given), the RP-LC retention time came out at 1020 s.

In the case of `CC(=O)N1CCCc2cc(S(N)(=O)=O)ccc21`, the RP-LC retention time was 559 s.

In the case of `Cc1ccc(CNC(=O)N2CCCC2c2cc(C)on2)cc1` (stereo not given), the RP-LC retention time was determined as 798 s.

Compound `Cc1ccc(CNC(=O)c2ccc3ccnc(N4CCN(c5ccc(F)cc5)CC4)c3c2)o1` displayed an RP-LC retention time of 828 s.

The compound `O=C(Nc1ccc(OC(F)(F)F)cc1)C(=O)Nc1cccc([N+](=O)[O-])c1` displayed an RP-LC retention time of 1030 s.

In the case of `COc1ccc(N2CCN(CC(=O)N3CCC(C(N)=O)CC3)CC2)cc1`, the RP-LC retention time was 885 s.

Compound `CCc1ccc(OCC(=O)Nc2nnc(C3CC(=O)N(c4ccc(Cl)cc4)C3)o2)cc1` (stereo not given) registered an RP-LC retention time of 888 s.

In the case of `Cc1cccc(-c2nnc(-c3nc(NCc4ccc(C)o4)c4ccccc4n3)o2)c1`, the RP-LC retention time worked out at 670 s.

As for `CCc1ccc(N2CC(c3nc(-c4cc(OC)c(OC)c(OC)c4)no3)CC2=O)cc1` (stereo not given), the RP-LC retention time turned out to be 988 s.

For the compound `CCOC(=O)CNC(=O)N1CCC2(CC1)NC(=O)c1ccccc1O2`, the RP-LC retention time is 630 s.

On to `CCCN1C(=O)COc2ccc(-c3noc(Cc4ccc(OC)cc4)n3)cc21`, for which the RP-LC retention time came to 1080 s.

The compound `CC(C)CCNC(=O)C1CCCN(c2nc3ccsc3c(=O)n2Cc2ccccc2)C1` (stereo not given) showed an RP-LC retention time of 955 s.

The compound `CN1CCN(CCCNC(=O)CCCN2C(=O)C(c3ccccc3)Oc3cccnc32)CC1` (stereo not given) showed an RP-LC retention time of 595 s.

For `CCn1nccc1-c1cccc(-c2noc(-c3ccc4cc[nH]c4c3)n2)c1`, the RP-LC retention time was found to be 1140 s.

`Cc1c(Cl)cccc1NC(=O)C1CCCN(c2nc3c(s2)c(C)nn3-c2cccc(F)c2)C1` (stereo not given) yielded an RP-LC retention time of 1200 s.

`O=S(=O)(c1ccc(-c2nnc(C3CCCC3)o2)o1)N1CCCC1` registered an RP-LC retention time of 933 s.

Turning to `O=C(c1ccc2ccnc(N3CCN(c4ccc(Cl)cc4)CC3)c2c1)N1CCCCCC1`, the RP-LC retention time is 986 s.

Compound `CCN(CC)S(=O)(=O)c1cc(-c2nnc(-c3ccc(OC)cc3)o2)ccc1Cl` showed an RP-LC retention time of 1140 s.

`O=C(NCCN1CCCCC1)c1cc2c(s1)CCN(C(=O)c1ccc(Cl)cc1)C2`: the RP-LC retention time was found to be 650 s.

For `O=C(NCc1ccco1)c1cc2c(=O)n(Cc3ccccc3)ccc2s1`, the RP-LC retention time came to 822 s.

On to `CC(C)(Oc1ccc(Cl)cc1)C(=O)N1CCN(CCn2cccn2)CC1`, for which the RP-LC retention time was 598 s.

Take `CC1CCN(c2cc(-c3noc(C(=O)NCCN4CCOCC4)n3)ccn2)CC1`: the RP-LC retention time was 572 s.

`CSc1ccc(CCNC(=O)C2CCCN(C(=O)c3cc(C)cc(C)c3)C2)cc1` (stereo not given) came in with an RP-LC retention time of 936 s.

With `COc1ccc2c(c1)-c1nc(NC(=O)c3cccc(F)c3)sc1CC2`, the RP-LC retention time stood at 1120 s.

On to `CC(=O)[C@@]1(O)CC[C@H]2[C@@H]3C[C@H](C)C4=CC(=O)C=C[C@]4(C)[C@@]3(F)[C@@H](O)C[C@@]21C`, for which the RP-LC retention time was 844 s.

Take `Cc1ccc(NC(=O)C2CCN(S(=O)(=O)c3cc(C(=O)N4CCCCCC4)cs3)CC2)nc1`: the RP-LC retention time turned out to be 754 s.

Regarding `CCN1c2ccccc2C(=O)NC12CCN(C(=O)c1ccc(F)cc1)CC2`, the RP-LC retention time came to 756 s.

Compound `O=C(NC1CC1)c1ccc(-n2cccn2)nc1` displayed an RP-LC retention time of 653 s.

On to `CCOC(=O)CCNC(=O)NCC1CC(=O)N(c2ccc(F)cc2)C1` (stereo not given), for which the RP-LC retention time is 629 s.

As for `CCn1cnc(S(=O)(=O)N2CCCC(C(=O)Nc3ccc(Cl)cc3C)C2)c1` (stereo not given), the RP-LC retention time is 795 s.

Compound `Cc1cc2nn(CC(=O)NCc3ccccc3)c(=O)n2c(-c2ccc(F)cc2)n1` had an RP-LC retention time of 781 s.

With `CN1C(=O)c2ccccc2Oc2ccc(C(=O)NC3CCCCCC3)cc21`, the RP-LC retention time worked out at 958 s.

As to `COc1ccc(NC(=O)Cn2ncc3c(N4CCN(c5ccccn5)CC4)ncnc32)cc1`, the RP-LC retention time was 596 s.

The compound `Cn1c(=O)oc2cc(-c3noc(-c4cc(F)ccc4Cl)n3)ccc21` showed an RP-LC retention time of 1090 s.

`CCN1CCN(c2ccc(NC(=O)c3ccc(C)c(N4CCCC4=O)c3)cn2)C1=O` came in with an RP-LC retention time of 600 s.

`O=C(NCCc1ccccn1)C1CN(C(=O)c2cccs2)CC12CCCCC2` (stereo not given) displayed an RP-LC retention time of 602 s.

As for `Cc1cn(C)c(CC(=O)NCCCN2CCCCCC2)c1C(=O)O`, the RP-LC retention time turned out to be 593 s.

The compound `CCOC(=O)c1cc(S(=O)(=O)N2CCCC2C(=O)NC(C)(C)CC)cn1C` (stereo not given) had an RP-LC retention time of 931 s.

`COc1ncc(C(=O)Nc2ccccc2)c(C)n1` had an RP-LC retention time of 698 s.

Take `CCSc1nc2ccc(NS(=O)(=O)c3cc(F)cc(F)c3)cc2s1`: the RP-LC retention time came out at 1050 s.

`CCN(CC)CCN(CC(=O)N1CCNCC1)S(=O)(=O)c1ccc(C)c(C)c1` showed an RP-LC retention time of 576 s.

In the case of `CC1(C(=O)NCc2ccc(F)cc2)CCCN(C(=O)Nc2ccc3c(c2)OCCO3)C1` (stereo not given), the RP-LC retention time is 792 s.

`CCn1c(=O)sc2cc(S(=O)(=O)N3CCC(C(=O)NCc4ccco4)CC3)ccc21` gave an RP-LC retention time of 792 s.

`CCCN(C)C(=O)c1cc2c(s1)N(CCC)CCCC2` showed an RP-LC retention time of 1170 s.

`O=C(OCc1ccccc1)c1nc2ccccc2nc1N1CCN(c2ccccn2)CC1` had an RP-LC retention time of 798 s.

Consider `CCOC(=O)N1CCN(C(=O)Cc2c(C)nn(-c3nc(-c4ccc(F)cc4)cs3)c2C)CC1`, for which the RP-LC retention time came to 1010 s.

In turn, `C=CCN1C(=O)COc2ccc(-c3csc(NC(=O)c4cccc(Cl)c4)n3)cc21` registered an RP-LC retention time of 1070 s.

Compound `CC(C)N1CCn2cc(S(=O)(=O)Nc3cccc(F)c3)cc2C1=O` came in with an RP-LC retention time of 751 s.

As to `O=S(=O)(CCc1ccccc1)NCC(O)Cc1ccccc1` (stereo not given), the RP-LC retention time amounted to 792 s.

Consider `C=CCn1nc2ccc(S(=O)(=O)N3CCCC3)cn2c1=O`, for which the RP-LC retention time is 706 s.

The compound `CCn1cc(NC(=O)Nc2nc(C)cs2)c2ccccc21` came in with an RP-LC retention time of 792 s.

Regarding `CSc1cccc(NC(=O)NCC(c2cccnc2)c2cn(C)c3ccccc23)c1` (stereo not given), the RP-LC retention time turned out to be 733 s.

With `Cc1ccc2c(Nc3ccccc3Cl)c(-c3nc(C)no3)cnc2n1`, the RP-LC retention time came out at 821 s.

The compound `C#CCOCC1CCN(C(=O)CSC2CCCC2)CC1` registered an RP-LC retention time of 852 s.

With `COCCNC(=O)C1Cn2cccc2C(=O)N1CC(C)C` (stereo not given), the RP-LC retention time worked out at 624 s.

`CSc1nnc(-c2nn(C)c3c2CN(C(=O)c2ccc(C)cc2)CC3)n1C` gave an RP-LC retention time of 716 s.

Take `COc1ccc(CNC(=O)Cn2cnc3nc(N4CCC(C(=O)NC5CC5)CC4)sc3c2=O)cc1`: the RP-LC retention time stood at 666 s.
